Measured values reported in US4385047A, “Antiallergic imidodisulfamides” (SmithKline Beckman Corporation, priority 1981, dated 1983).

System: partially purified slow reacting substance of anaphylaxis (SRS-A) obtained from guinea pig lung
Experiment: Inhibition of SRS-A induced contraction of guinea pig ileum
Conditions: compound concentration 5×10^-6 M, agonist SRS-A 40 μg/ml, 15 min, 5 µM
Method: The SRS-A antagonist activity of the compounds of this invention is measured by the ability of the active medicament to inhibit SRS-A induced contraction of guinea pig ileum. In this test system, sections of ileum are resected from guinea pigs and placed in 5 ml. tissue baths containing a modified Tyrode's solution. One end of the tissue is fixed to a glass tissue holder, the other is connected to a force-displacement transducer and the tissue is placed under a tension of 500 mg. Isometric tissue contractions are recorded on a six channel polygraph. Baths are constantly aerated with 95% O2 -5% CO2. After a 20 minute stabilization period a concentration of the appropriate agonist which provides a contraction height of 60-80% of the maximum obtainable to that agonist (as determined from full sequential concentration--response curves in separate experiments) is added to the tissue bath and the response recorded. The procedure is repeated until reproducible responses are obtained. […] Percent inhibition produced by the test compound is calculated by subtracting the mean percentage change in control tissue from the mean percentage change in tissues exposed to the test compound. Additional compounds are then evaluated as long as the tissue remains reproducibly responsive to the agonist. […]

O=C(CS(=O)(=O)c1ccc2c(c1)CN(S(=O)(=O)NS(=O)(=O)N1CCc3ccc(S(=O)(=O)CC(=O)c4ccc(Cl)cc4)cc3C1)CC2)c1ccc(Cl)cc1 [Compound 1, N,N'-bis[7-(4-chlorobenzoylmethylsulfonyl)-1,2,3,4-tetrahydroisoquinolyl]disulfonylimide]
percent antagonism of SRS-A induced contraction: 60%
